Measurements published in ChEMBL document CHEMBL1201862, “PubChem BioAssay data set” (2004).
One block for each compound: values may come before it. Activity calls are given as the source filed them.

Experiments:
[1] = molecular target: T1, RNA-binding protein pos-1 (Caenorhabditis elegans, UniProt G5EF15); assay: disruptors of C. elegans POS-1 RNA interaction – biochemical, fluorescence polarization, dose response (AID 1964);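 note: purified POS-1 fused to maltose binding protein made in E. coli; potency of compounds blocking POS-1 binding to fluorescent RNA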
T1 sequence (G5EF15 whole entry): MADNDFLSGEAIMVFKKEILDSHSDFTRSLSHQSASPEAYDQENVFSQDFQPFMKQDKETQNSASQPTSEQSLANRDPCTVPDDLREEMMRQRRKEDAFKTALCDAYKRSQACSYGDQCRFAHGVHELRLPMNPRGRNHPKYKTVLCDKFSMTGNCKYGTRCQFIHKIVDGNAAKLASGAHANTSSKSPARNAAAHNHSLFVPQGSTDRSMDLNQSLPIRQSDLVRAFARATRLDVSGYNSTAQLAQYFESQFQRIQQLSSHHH

[2] = molecular target: Neurotensin receptor type 1 (Homo sapiens, UniProt P30989); type: functional;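 note: Image-based confirmatory dose-response assay measuring agonist activity at NTR1; NTR1-expressing U2OS osteosarcoma cells imaged for beta-arrestin GFP spot formation; agonist potency where compounds increase beta-arrestin recruitment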
[3] = molecular target: T2, Zinc finger protein mex-5 (Caenorhabditis elegans, UniProt Q9XUB2); assay: potency of MEX-5 RNA-binding blockers – biochemical, C. elegans, fluorescence polarization, dose response (AID 1960)
T2 sequence (Q9XUB2 whole entry): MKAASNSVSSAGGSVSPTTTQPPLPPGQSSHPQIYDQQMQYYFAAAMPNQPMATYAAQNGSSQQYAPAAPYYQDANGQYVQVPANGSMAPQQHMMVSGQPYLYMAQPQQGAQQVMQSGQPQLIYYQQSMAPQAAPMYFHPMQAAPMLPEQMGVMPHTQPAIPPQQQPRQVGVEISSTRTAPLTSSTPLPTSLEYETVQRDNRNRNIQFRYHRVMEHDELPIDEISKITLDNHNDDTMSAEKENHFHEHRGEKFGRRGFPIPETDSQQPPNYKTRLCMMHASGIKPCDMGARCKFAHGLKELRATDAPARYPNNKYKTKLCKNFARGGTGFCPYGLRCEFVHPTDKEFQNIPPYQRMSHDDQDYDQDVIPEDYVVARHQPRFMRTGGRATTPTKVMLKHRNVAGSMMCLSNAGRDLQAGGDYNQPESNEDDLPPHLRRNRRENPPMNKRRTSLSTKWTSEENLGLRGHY

[4] = molecular target: Neuropeptides B/W receptor type 1 (Homo sapiens, UniProt P48145); assay: Fluorescence-based dose response cell-based high throughput screening assay to identify antagonists of the G-protein coupled receptor 7 (GPR7). [Related pubchem assays: 1952 (Screening assay (GPR7 antagonists).), 1880 (Summary AID.)]; type: functional
[5] = molecular target: Melanin-concentrating hormone receptor 1 (Homo sapiens, UniProt Q99705); assay: Fluorescence-based counterscreen for antagonists of the G-protein coupled receptor 7 (GPR7): cell-based high throughput dose response assay to identify antagonists of the melanin-concentrating hormone receptor 1 (MCHR1).; type: functional
[6] = Luminescence Cell Based Dose Confirmation HTS to Identify Activators of 5'UTR Stem-Loop Driven Alpha-Synuclein mRNA Translation in H4 Neuroglioblastoma Cells. [Related pubchem assays (depositor defined):AID1813, AID1829]; type: functional; conditions: Homo sapiens
[7] = molecular target: T3, Voltage-gated N-type calcium channel alpha-1B subunit/Amyloid beta A4 precursor protein-binding family A member 1 (Homo sapiens, UniProt Q00975+Q02410); assay: disruptors of Mint-PDZ/N-type channel peptide interaction – biochemical, HTRF, set 2, SAR follow-up (AID 434980); type: functional
[8] = molecular target: T4, Apoptotic protease-activating factor 1 (Homo sapiens, UniProt O14727); type: functional
T4 sequence (O14727 whole entry): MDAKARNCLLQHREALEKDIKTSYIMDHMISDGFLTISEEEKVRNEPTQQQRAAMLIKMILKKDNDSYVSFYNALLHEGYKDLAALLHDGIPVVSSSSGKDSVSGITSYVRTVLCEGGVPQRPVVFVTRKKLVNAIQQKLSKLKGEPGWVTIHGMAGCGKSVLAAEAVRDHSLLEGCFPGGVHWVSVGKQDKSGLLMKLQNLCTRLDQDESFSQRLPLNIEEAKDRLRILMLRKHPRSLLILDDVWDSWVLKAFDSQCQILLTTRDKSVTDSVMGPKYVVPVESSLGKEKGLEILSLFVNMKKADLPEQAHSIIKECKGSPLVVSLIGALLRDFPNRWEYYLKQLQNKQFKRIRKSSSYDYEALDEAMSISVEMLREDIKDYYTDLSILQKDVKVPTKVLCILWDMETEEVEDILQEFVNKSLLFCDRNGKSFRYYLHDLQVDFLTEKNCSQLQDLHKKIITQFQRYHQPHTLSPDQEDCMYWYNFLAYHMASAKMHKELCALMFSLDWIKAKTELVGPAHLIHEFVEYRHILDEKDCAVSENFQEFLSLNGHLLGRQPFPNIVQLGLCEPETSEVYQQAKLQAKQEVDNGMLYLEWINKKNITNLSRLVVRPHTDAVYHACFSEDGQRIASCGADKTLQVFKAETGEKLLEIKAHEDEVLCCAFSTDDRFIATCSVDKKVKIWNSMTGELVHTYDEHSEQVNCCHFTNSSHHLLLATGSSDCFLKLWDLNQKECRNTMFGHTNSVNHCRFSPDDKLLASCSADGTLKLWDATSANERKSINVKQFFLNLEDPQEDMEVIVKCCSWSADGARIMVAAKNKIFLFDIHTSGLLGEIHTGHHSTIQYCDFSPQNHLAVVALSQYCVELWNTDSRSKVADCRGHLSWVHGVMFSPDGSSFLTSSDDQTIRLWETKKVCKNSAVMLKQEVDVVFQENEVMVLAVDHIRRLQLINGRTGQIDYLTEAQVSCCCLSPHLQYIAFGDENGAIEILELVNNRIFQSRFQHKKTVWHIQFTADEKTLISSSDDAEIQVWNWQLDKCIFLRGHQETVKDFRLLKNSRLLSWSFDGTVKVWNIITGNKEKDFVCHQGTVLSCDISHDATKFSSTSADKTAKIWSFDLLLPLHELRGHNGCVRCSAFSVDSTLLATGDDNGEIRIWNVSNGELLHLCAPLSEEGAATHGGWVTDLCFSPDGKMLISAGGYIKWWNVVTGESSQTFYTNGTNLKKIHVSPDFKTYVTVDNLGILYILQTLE

Protein Rev = Protein Rev (Human immunodeficiency virus type 1 group M subtype B (isolate HXB2)(HIV-1), UniProt P04618); assay: blockers of HIV Rev/RRE RNA complex – biochemical, fluorescence polarization, HIV-1, dose response (AID 434976); set-up: species or system Human immunodeficiency virus 1
[9] = molecular target: Female germline-specific tumor suppressor gld-1 (Caenorhabditis elegans, UniProt Q17339); assay: blockers of GLD-1/TGE RNA complex formation – biochemical, fluorescence polarization, C. elegans, dose response (AID 2802);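 note: fluorescence polarization of labeled TGE RNA bound by purified gld-1 protein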
[10] = molecular target: T3, Voltage-gated N-type calcium channel alpha-1B subunit/Amyloid beta A4 precursor protein-binding family A member 1; type: protein assay
[11] = molecular target: T3, Voltage-gated N-type calcium channel alpha-1B subunit/Amyloid beta A4 precursor protein-binding family A member 1; type: protein assay; remark: listed apart in the source

T3 sequence (Q00975 whole entry): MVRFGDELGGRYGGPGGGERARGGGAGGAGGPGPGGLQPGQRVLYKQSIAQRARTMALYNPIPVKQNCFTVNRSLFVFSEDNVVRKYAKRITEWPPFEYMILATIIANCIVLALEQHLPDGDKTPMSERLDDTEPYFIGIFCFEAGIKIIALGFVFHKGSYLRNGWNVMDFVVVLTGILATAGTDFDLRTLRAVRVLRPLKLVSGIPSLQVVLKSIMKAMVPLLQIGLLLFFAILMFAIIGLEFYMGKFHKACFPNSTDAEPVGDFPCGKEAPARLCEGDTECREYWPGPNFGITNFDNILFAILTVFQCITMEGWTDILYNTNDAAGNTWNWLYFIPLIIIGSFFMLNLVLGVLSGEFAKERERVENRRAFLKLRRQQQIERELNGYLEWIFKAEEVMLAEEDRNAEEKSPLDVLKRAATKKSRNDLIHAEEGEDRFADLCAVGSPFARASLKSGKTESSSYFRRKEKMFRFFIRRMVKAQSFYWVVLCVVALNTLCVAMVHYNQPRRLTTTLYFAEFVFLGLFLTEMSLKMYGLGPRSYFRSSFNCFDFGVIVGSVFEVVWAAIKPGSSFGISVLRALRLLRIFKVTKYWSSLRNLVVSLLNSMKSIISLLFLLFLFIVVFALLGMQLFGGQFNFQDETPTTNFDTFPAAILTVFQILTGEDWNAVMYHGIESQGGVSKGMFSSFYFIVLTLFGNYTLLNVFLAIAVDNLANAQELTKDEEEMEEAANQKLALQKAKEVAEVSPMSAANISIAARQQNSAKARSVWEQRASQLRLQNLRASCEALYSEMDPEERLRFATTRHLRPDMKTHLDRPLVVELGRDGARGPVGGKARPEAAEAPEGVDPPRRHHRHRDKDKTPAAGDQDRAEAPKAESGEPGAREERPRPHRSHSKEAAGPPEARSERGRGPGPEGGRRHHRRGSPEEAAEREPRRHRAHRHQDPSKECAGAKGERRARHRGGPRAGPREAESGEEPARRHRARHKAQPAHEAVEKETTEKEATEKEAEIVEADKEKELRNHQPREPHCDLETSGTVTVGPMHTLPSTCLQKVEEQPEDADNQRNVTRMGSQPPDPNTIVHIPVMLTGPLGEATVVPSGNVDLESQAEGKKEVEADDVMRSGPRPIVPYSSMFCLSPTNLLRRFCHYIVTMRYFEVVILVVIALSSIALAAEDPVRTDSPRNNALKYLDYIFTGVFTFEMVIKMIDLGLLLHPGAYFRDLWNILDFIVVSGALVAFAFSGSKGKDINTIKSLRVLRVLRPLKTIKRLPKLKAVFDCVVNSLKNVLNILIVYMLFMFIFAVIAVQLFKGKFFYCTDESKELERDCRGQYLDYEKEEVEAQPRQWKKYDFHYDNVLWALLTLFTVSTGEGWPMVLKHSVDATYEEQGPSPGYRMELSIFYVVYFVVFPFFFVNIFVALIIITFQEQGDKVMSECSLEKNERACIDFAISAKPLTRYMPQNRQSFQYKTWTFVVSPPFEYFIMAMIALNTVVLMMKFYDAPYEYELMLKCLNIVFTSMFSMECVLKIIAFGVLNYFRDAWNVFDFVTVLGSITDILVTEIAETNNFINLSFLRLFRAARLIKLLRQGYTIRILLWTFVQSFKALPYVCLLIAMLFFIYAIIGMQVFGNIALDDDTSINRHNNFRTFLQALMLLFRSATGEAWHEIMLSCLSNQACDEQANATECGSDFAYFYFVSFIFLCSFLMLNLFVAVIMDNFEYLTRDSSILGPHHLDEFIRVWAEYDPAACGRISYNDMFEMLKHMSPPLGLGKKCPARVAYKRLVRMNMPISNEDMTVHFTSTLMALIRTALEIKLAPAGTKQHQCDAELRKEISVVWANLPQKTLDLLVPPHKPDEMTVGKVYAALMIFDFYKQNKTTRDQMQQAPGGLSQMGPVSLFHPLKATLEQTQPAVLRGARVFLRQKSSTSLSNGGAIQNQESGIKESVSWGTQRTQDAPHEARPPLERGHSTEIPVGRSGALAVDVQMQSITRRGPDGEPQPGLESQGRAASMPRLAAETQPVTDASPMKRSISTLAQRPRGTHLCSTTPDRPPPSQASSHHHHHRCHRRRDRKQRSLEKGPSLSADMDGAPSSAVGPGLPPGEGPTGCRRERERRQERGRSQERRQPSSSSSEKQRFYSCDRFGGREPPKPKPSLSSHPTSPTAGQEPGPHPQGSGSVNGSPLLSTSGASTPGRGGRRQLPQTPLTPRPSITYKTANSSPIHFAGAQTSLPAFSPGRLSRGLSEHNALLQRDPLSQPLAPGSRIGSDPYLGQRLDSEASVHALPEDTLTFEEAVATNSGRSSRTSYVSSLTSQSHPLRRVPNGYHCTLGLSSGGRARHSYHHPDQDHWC
T3 sequence (Q02410 whole entry): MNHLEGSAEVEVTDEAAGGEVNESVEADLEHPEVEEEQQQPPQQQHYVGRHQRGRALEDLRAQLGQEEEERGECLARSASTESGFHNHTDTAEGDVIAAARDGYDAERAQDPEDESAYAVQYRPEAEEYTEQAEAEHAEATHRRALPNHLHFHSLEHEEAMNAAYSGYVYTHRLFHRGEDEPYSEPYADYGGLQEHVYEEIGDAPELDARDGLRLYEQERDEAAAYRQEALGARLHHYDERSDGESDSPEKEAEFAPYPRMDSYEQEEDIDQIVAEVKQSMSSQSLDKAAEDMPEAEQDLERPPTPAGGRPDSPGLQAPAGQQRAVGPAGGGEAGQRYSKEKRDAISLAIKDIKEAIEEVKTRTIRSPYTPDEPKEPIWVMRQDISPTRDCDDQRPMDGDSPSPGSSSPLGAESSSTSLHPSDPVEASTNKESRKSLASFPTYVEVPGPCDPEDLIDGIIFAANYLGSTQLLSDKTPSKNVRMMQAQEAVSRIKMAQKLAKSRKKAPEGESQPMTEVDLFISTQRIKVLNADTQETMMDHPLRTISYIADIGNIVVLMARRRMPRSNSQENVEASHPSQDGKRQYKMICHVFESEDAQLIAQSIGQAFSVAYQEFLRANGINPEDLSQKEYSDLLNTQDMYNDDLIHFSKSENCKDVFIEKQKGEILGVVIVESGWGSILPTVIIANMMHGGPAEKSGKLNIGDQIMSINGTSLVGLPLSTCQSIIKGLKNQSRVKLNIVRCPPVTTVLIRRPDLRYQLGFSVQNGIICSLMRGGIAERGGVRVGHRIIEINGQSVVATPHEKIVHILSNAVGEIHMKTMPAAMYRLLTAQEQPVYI
Sequence of Female germline-specific tumor suppressor gld-1 (Q17339 whole entry): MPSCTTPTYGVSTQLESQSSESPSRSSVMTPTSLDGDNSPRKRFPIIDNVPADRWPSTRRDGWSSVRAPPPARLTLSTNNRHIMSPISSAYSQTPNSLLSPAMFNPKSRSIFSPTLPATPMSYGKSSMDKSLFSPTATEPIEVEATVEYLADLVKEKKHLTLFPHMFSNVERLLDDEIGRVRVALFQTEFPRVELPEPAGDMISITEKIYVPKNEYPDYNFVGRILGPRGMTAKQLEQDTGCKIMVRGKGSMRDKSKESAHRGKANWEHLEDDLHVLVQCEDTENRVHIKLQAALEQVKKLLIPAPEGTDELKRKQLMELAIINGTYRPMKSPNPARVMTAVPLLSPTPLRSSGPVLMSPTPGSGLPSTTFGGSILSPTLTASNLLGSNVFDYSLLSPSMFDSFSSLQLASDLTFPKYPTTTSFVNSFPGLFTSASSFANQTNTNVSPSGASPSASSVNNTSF
Sequence of Melanin-concentrating hormone receptor 1 (Q99705 whole entry): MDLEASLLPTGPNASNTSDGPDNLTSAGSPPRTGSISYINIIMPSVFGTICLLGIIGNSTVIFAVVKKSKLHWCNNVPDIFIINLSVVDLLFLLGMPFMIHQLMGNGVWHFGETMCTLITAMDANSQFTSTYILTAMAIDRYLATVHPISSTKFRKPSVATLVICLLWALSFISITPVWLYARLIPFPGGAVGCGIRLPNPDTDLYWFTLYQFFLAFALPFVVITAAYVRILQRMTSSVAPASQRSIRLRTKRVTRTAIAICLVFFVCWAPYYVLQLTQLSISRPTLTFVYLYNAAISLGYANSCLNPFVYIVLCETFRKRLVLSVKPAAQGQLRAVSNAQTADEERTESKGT
Sequence of Neurotensin receptor type 1 (P30989 whole entry): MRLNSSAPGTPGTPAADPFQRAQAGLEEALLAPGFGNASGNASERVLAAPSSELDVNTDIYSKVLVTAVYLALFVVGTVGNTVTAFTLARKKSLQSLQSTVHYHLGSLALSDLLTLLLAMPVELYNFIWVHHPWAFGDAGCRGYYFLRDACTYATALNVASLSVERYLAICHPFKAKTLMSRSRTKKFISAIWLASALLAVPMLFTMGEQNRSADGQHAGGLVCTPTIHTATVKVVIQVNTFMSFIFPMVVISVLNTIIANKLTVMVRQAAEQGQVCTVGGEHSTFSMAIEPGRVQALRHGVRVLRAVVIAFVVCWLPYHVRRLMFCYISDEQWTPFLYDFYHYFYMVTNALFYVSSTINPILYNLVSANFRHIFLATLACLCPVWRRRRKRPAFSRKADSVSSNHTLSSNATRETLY
Sequence of Neuropeptides B/W receptor type 1 (P48145 whole entry): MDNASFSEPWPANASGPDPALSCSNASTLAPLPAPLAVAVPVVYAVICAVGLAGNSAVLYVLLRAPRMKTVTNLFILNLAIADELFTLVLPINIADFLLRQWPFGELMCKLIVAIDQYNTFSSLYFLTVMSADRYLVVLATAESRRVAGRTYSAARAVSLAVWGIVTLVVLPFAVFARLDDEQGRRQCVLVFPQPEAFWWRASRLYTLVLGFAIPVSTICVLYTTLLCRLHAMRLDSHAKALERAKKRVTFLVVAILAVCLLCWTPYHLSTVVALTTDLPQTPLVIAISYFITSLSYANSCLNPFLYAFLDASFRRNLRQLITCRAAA
Sequence of Protein Rev (P04618 whole entry): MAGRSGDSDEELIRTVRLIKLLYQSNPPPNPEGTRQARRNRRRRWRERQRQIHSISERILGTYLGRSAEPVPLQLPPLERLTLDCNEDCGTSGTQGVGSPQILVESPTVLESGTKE

SMILES: O=C(CC1Nc2ccccc2NC1=O)Nc1cc(Cl)cc(Cl)c1 (configuration not stated)
EC50 [1]: 152 µM (active) | EC50 [2]: 8.64 µM (active) | EC50 [3]: > 300 µM (not active)

SMILES: FC(F)(F)c1ccc(Cl)c(Nc2nnc(-c3ccncc3)s2)c1
EC50 [6]: > 195 µM (inactive)

SMILES: Nc1cc2nc3ccccc3nc2cc1N
IC50 [8]: > 100 µM (inactive) | IC50 (Protein Rev): 9.53 µM (active) | IC50 [9]: 4.97 µM (active) | IC50 [10]: > 50 µM (inactive) | IC50 [11]: 9.86 µM (active)

Continued, values first:

IC50 [4]: > 43.8 µM (not active) | IC50 [5]: > 43.8 µM (not active)
SMILES: CCOC(=O)CNC(c1ccccc1)c1cc(Br)ccc1NC(C)=O (configuration not stated)

IC50 [7]: > 56.8 µM (inactive)
SMILES: O=C(NC1CCc2ccccc2C1)c1cc(-c2ccco2)nc2ccccc12 (configuration not stated)
